Laboratory results as given in PubChem BioAssay AID256 (DTP/NCI, 2004).
Where “and” joins values, the source holds several entries; their conditions need not be identical. Identical values can stand only once. Toxic doses and inconclusive results are not listed. Rule for the calls: active = survival T/C of 150% or more; inactive = T/C below 125% in these data.

Test system: CD2F1 mice, L1210 leukemia ip, survival T/C
Assay: NCI In Vivo Anticancer Drug Screen. Data for tumor model L1210 Leukemia (intraperitoneal) in CD2F1 (CDF1) mice
Conditions: endpoint: mean survival time, higher = longer survival
Procedure, shortened: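 In this screen, transplantable tumors were grown in mice given either the compound or its vehicle. Results were expressed as the treated measurement relative to the control measurement.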

[1] = dose: 100.0 mg/kg/injection, schedule: Q04DX002 (ip), vehicle: saline with Tween-80
[2] = dose: 200.0 mg/kg/injection, schedule: Q04DX002 (ip), vehicle: saline with Tween-80
[3] = dose: 400.0 mg/kg/injection, schedule: Q04DX002 (ip), vehicle: saline with Tween-80
[4] = dose: 75.0 mg/kg/injection, schedule: Q01DX001 (ip), vehicle: saline
[5] = dose: 150.0 mg/kg/injection, schedule: Q01DX001 (ip), vehicle: saline
[6] = dose: 50.0 mg/kg/injection, schedule: Q01DX009 (ip), vehicle: saline with Tween-80
[7] = dose: 100.0 mg/kg/injection, schedule: Q01DX009 (ip), vehicle: saline with Tween-80
[8] = dose: 200.0 mg/kg/injection, schedule: Q01DX009 (ip), vehicle: saline with Tween-80
[9] = dose: 400.0 mg/kg/injection, schedule: Q01DX009 (ip), vehicle: saline with Tween-80
[10] = dose: 100.0 mg/kg/injection, schedule: Q04DX003 (ip), vehicle: saline with Tween-80
[11] = dose: 200.0 mg/kg/injection, schedule: Q04DX003 (ip), vehicle: saline with Tween-80
[12] = dose: 400.0 mg/kg/injection, schedule: Q04DX003 (ip), vehicle: saline with Tween-80
[13] = dose: 25.0 mg/kg/injection, schedule: Q01DX009 (ip), vehicle: saline with Tween-80
[14] = dose: 100.0 mg/kg/injection, schedule: Q01DX001 (ip), vehicle: saline with Tween-80
[15] = dose: 200.0 mg/kg/injection, schedule: Q01DX001 (ip), vehicle: saline with Tween-80
[16] = dose: 400.0 mg/kg/injection, schedule: Q01DX001 (ip), vehicle: saline with Tween-80

Measured: T/C

CC1=C(/C=C/C(=O)O)C(C)(C)CCC1
inactive: [1] 92 % of control | [2] 96 % of control | [3] 92 % of control

CC1(C)Oc2[nH]c(=O)n(-c3ccc(Cl)cc3)c(=O)c2C1c1ccc(Cl)cc1 (centres undefined)
inactive: [1] 102 % of control | [2] 105 % of control | [3] 109 % of control

Nc1ccc(S(=O)(=O)Nc2ccccc2O)cc1
inactive: dose: 3.0 mg/kg/injection, schedule: Q01DX001 (ip), vehicle: saline with Tween-80 103 % of control | dose: 6.25 mg/kg/injection, schedule: Q01DX001 (ip), vehicle: saline with Tween-80 103 % of control | dose: 12.5 mg/kg/injection, schedule: Q01DX001 (ip), vehicle: saline with Tween-80 103 % of control | dose: 25.0 mg/kg/injection, schedule: Q01DX001 (ip), vehicle: saline with Tween-80 102 % of control | dose: 50.0 mg/kg/injection, schedule: Q01DX001 (ip), vehicle: saline with Tween-80 102 % of control

Cc1[se]c2ccccc2[n+]1C
inactive: [4] 98 % of control | [5] 107 % of control

[C-]#[O+].[C-]#[O+].[C-]#[O+].[C-]#[O+].[C-]#[O+].[Cr].c1ccc(O[PH+](Oc2ccccc2)Oc2ccccc2)cc1
inactive: [6] 96 % of control | [7] 96 % of control | [8] 91 % of control

O=C1c2ccccc2C(=O)N1CCCCCCCCCCN1C(=O)c2ccccc2C1=O
inactive: [7] 92 % of control | [8] 89 % of control | [9] 93 % of control

CCOC(=O)Nc1cc(NCc2ccccc2)c([N+](=O)[O-])c(N)n1
inactive: dose: 12.5 mg/kg/injection, schedule: Q01DX001 (ip), vehicle: Klucel (hydroxypropylcellulose) (HPC) 109 % of control | dose: 25.0 mg/kg/injection, schedule: Q01DX001 (ip), vehicle: Klucel (hydroxypropylcellulose) (HPC) 101 % of control | dose: 50.0 mg/kg/injection, schedule: Q01DX001 (ip), vehicle: Klucel (hydroxypropylcellulose) (HPC) 91 % of control

Nn1c2ccccc2c2ccccc21
inactive: [4] 98 % of control | [5] 106 % of control

O=C(/C=C/c1ccc(Cl)c(Cl)c1)/C=C/c1ccc(Cl)c(Cl)c1
inactive: dose: 50.0 mg/kg/injection, schedule: Q01DX009 (ip), vehicle: Klucel (hydroxypropylcellulose) (HPC) 98 % of control | dose: 100.0 mg/kg/injection, schedule: Q01DX009 (ip), vehicle: Klucel (hydroxypropylcellulose) (HPC) 94 % of control | dose: 200.0 mg/kg/injection, schedule: Q01DX009 (ip), vehicle: Klucel (hydroxypropylcellulose) (HPC) 90 % of control

OC(Cc1nc(-c2ccccc2)c(-c2ccccc2)s1)(C(F)(F)F)C(F)(F)F
inactive: [7] 95 % of control | [10] 91 % of control | [8] 101 % of control | [11] 95 % of control | [9] 86 % of control | [12] 89 % of control

Cn1c(=O)cc(O)c2ccccc21
inactive: [10] 101 % of control | [11] 97 % of control | [12] 97 % of control

C=CC[N+]12CC=C(CO)C1C(O)CC2 (centres undefined)
inactive: dose: 100.0 mg/kg/injection, schedule: Q04DX002 (ip), vehicle: saline 101 % of control | dose: 200.0 mg/kg/injection, schedule: Q04DX002 (ip), vehicle: saline 104 % of control | dose: 400.0 mg/kg/injection, schedule: Q04DX002 (ip), vehicle: saline 97 % of control

Cc1cc(N(CCCOS(C)(=O)=O)CCCOS(C)(=O)=O)ccc1C=Nc1ccc2ccccc2c1
inactive: [13] 93 % of control | [6] 93 % of control | [7] 88 % of control

CCOC(=O)C(=NN)C(=O)OCC
inactive: [14] 97 % of control | [7] 96 % of control | [15] 105 % of control | [8] 101 % of control | [16] 102 % of control | [9] 93 % of control

CCCC[P+](C)(CC[P+](C)(c1ccccc1)c1ccccc1)c1ccccc1 (centres undefined)
inactive: dose: 6.25 mg/kg/injection, schedule: Q04DX002 (ip), vehicle: saline 104 % of control | dose: 12.5 mg/kg/injection, schedule: Q04DX002 (ip), vehicle: saline 89 % of control

CCOC(=O)C1CN(C(=O)OCC)CC1=O (centres undefined)
inactive: dose: 50.0 mg/kg/injection, schedule: Q01DX001 (ip), vehicle: other 103 % of control | dose: 100.0 mg/kg/injection, schedule: Q01DX001 (ip), vehicle: other 106 % of control | dose: 200.0 mg/kg/injection, schedule: Q01DX001 (ip), vehicle: other 107 % of control | dose: 400.0 mg/kg/injection, schedule: Q01DX001 (ip), vehicle: other 109 % of control

CN(C)P(=O)(Oc1ccccc1)N(C)C
inactive: dose: 12.5 mg/kg/injection, schedule: Q01DX009 (ip), vehicle: saline with Tween-80 98 % of control and 100 % of control | [13] 95 % of control and 101 % of control | [6] 89 % of control and 96 % of control | [7] 94 % of control and 101 % of control | [8] 95 % of control and 96 % of control | [9] 93 % of control and 96 % of control

CCCCCCCN=NC
inactive: dose: 75.0 mg/kg/injection, schedule: Q01DX001 (ip), vehicle: other 96 % of control | dose: 150.0 mg/kg/injection, schedule: Q01DX001 (ip), vehicle: other 100 % of control | dose: 300.0 mg/kg/injection, schedule: Q01DX001 (ip), vehicle: other 93 % of control

CC(C)(C)OC(=O)Cc1ccccc1
inactive: [14] 91 % of control | [15] 97 % of control | [16] 94 % of control

CC1CC(C)(C)N=C(C(C)CC2CCCCC2)O1 (centres undefined)
inactive: [14] 95 % of control | [15] 93 % of control

COc1c(C)c2c(c(O)c1CCNc1ccc(S(N)(=O)=O)cc1)C(=O)OC2
inactive: [1] 100 % of control | [2] 96 % of control | [3] 100 % of control

O=C1NC(=O)C2=C1C1(Cl)C(Cl)=C(Cl)C2(Cl)C1(Cl)Cl
inactive: [10] 103 % of control | [11] 101 % of control | [12] 103 % of control

CC1(C)COCN1COC1CCCCC1
inactive: dose: 12.5 mg/kg/injection, schedule: Q01DX009 (ip), vehicle: suspension in saline 95 % of control | dose: 25.0 mg/kg/injection, schedule: Q01DX009 (ip), vehicle: suspension in saline 100 % of control | dose: 50.0 mg/kg/injection, schedule: Q01DX009 (ip), vehicle: suspension in saline 103 % of control | dose: 100.0 mg/kg/injection, schedule: Q01DX009 (ip), vehicle: suspension in saline 108 % of control | dose: 200.0 mg/kg/injection, schedule: Q01DX009 (ip), vehicle: suspension in saline 105 % of control
